Patent US7244557B2, “Method of screening modulators of Nod1 signaling” (Regents of the University of Michigan, priority 2003, dated 2007)

Target: T1, TLR2 (Homo sapiens, UniProt O60603)
T1 construct: expressed in transfected cells; host or cells: HEK293T
Assay: NF-κB activation assay, cells expressing TLR2 or TLR2 with TLR1 and/or TLR6
Assay type: cell-based
Settings: 1 μg/ml
Method: A) Structure of purified PGN fraction from B. subtilis (GM3P) and synthetic PGN-related compounds used in the study. B) Structure of MDP and four copies of GlcNAc-MurNAc with attached L-Ala-γ-D-Gln (4 mer) are indicated by closed and dotted boxes, respectively. C) The ability of cells were transfected with 0.3 ng pcDNA3-NOD1-Flag, 0.1 ng pcDNA3-Nod2 (NOD2) or vector control and reporter pBxIV-luc and pEF-BOS-β-gal plasmids to activate NF-κB. D) The ability of synthetic peptides, iE-DAP and iQ-DAP to stimulate NF-κB activation in the presence of control vector (−) and plasmids encoding NOD1 wild-type, mutant NOD1 lacking LRRs (NOD1ΔLRR) and NOD2. E) The ability of iE-DAP, iQ-DAP and sBLP (1 μg/ml) to activate NF-κB.
Reagents. LPS from S. typhimurium, intact and alkaline-detoxified LPS from E. coli O55:B5 as well as purified lipid A preparations of E. coli F583, MDP, DAP and dsRNA were obtained from Sigma-Aldrich (St. Louis, Mo.). PGN from S. aureus was from Fluka-Chemie (Buchs, Germany). Palmitoyl-Cys ((RS)-2,3-di(palmitoyloxy)-propyl)-Ala-Gly) (sBLP), was obtained from Bachem (Torrance, Calif.). The tetrameric form of the disaccharide dipeptide was described previously (Inohara et al., J. Biol. Chem. 278:5509 [2003]). iE-DAP and iQ-DAP, M3P and M4P were synthesized as described (Kitaura et al., J. Med. Chem. 25:335 [1982]) with small modification. Purification of PGN from B. subtilis 168 and C. flaccumfaciens with hydrolases, Cellosyl or recombinant AtlE (amidase domain) and the fractionation and purification of reduced B. subtilis PGN digested with Cellosyl were performed as previously described (Heilman et al., Mol. Microbiol. 24:1013 [1997]; Atrih et al., J. Bact. 181:3956 [1999]). Removal of proteins and reduction of LPS fraction. E. coli O55:B5 LPS (Sigma) was treated with proteinase K at 37° C. for 12 hr to digest contaminating proteins. […] The amino acid composition of E. coli O55:B5 LPS was determined using AccQ·Tag amino acid analysis system (Waters, Milford, Mass.) after hydrolysis at 110° C. for 24 hr. […]

T1 sequence (O60603 21-784, species assumed): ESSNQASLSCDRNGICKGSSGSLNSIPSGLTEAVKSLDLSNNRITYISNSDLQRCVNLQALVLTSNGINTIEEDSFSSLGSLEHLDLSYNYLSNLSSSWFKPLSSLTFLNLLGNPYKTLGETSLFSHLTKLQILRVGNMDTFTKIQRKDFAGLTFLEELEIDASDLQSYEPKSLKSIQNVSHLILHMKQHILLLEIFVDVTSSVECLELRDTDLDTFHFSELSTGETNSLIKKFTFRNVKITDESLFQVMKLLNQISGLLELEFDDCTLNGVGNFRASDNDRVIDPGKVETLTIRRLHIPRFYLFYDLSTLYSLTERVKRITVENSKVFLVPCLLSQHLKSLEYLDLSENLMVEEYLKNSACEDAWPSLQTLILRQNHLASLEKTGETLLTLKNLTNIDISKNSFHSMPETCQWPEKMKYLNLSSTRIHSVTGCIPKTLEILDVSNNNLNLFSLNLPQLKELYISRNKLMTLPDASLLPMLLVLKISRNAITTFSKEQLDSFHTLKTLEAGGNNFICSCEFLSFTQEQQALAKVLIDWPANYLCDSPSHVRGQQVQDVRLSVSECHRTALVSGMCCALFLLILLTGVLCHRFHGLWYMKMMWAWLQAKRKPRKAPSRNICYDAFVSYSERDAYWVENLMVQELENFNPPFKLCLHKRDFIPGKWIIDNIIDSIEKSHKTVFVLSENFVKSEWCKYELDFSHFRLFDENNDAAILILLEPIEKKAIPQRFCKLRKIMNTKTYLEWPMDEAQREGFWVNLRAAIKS

| Substance | NF-κB activation via TLR2 or TLR2 co-expressed with TLR1 and/or TLR6 |
| --- | --- |
| Palmitoyl-Cys ((RS)-2,3-di(palmitoyloxy)-propyl)-Ala-Gly) [synthetic lipoprotein] | activated TLR2 |
| γ-D-Gln-DAP [iQ-DAP] | not TLR2 or TLR2 co-expressed with TLR1 and/or TLR6 |
| γ-D-glutamy-meso-diaminopimelic acid [iE-DAP] | not TLR2 or TLR2 co-expressed with TLR1 and/or TLR6 |
